Test results published in US20220119354A1, “DIAMINO-SUBSTITUTED PYRIDINES AND PYRIMIDINES AS HERBICIDES” (FMC Corporation, priority 2019, published 2022).

What was measured:
Type in all cases: in vivo
corn (Zea mays) = experiment: Test A postemergence, corn; settings: 0 to 100 scale
In short: (§1)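 0–100 visual control rating, ~10 d post-treatment, greenhouse. Pre = directed soil spray on seeded loam/sand; post = spray at 1–2 leaf stage. Surfactant-containing solvent formulation.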

[1] = system: ragweed (common ragweed, Ambrosia elatior); experiment: Test A postemergence, ragweed; settings: 0 to 100 scale
In short: as §1

[2] = system: pigweed (Amaranthus retroflexus); experiment: Test A preemergence, pigweed; settings: 0 to 100 scale; for Pigweed plant response rating: 0 is no effect, 100 is complete control
In short: as §1

[3] = system: ragweed (common ragweed, Ambrosia elatior); experiment: Test A preemergence, ragweed; settings: 0 to 100 scale; for Ragweed plant response rating: 0 is no effect, 100 is complete control
In short: as §1

[4] = system: foxtail, giant (Setaria faberii); experiment: Test A preemergence, giant foxtail; settings: 0 to 100 scale; for Foxtail, Giant plant response rating: 0 is no effect, 100 is complete control
In short: as §1

[5] = system: wheat (Triticum aestivum); experiment: Test A postemergence, wheat; settings: 0 to 100 scale
In short: as §1

[6] = system: galium (catchweed bedstraw, Galium aparine); experiment: Test A postemergence, galium; settings: 0 to 100 scale
In short: as §1

kochia (Kochia scoparia) [7] = experiment: Test A postemergence, kochia; settings: 0 to 100 scale
In short: as §1

kochia (Kochia scoparia) [8] = experiment: Test A preemergence, kochia; settings: 0 to 100 scale; for Kochia plant response rating: 0 is no effect, 100 is complete control
In short: as §1

[9] = system: pigweed (Amaranthus retroflexus); experiment: Test A postemergence, pigweed; settings: 0 to 100 scale
In short: as §1

rice (Oryza sativa) = experiment: Test B flooded paddy test, rice; settings: Flood, 250 g ai/ha, applied to paddy water, 2-leaf stage, visual evaluation after 13 to 15 d
In short: (§2)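 2-leaf seedlings; pots flooded 3 cm above soil; compound added straight to paddy water; depth maintained. Greenhouse 13–15 d. Visual rating vs controls, 0–100 scale (0 = no effect, 100 = complete control).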

[10] = system: barnyardgrass (Echinochloa crus-galli); experiment: Test A postemergence, barnyardgrass; settings: 0 to 100 scale
In short: as §1

[11] = system: blackgrass (Alopecurus myosuroides); experiment: Test A postemergence, blackgrass; settings: 0 to 100 scale
In short: as §1

[12] = system: sedge, umbrella (small-flower umbrella sedge, Cyperus difformis); experiment: Test B flooded paddy test, umbrella sedge; settings: Flood, 250 g ai/ha, applied to paddy water, 2-leaf stage, visual evaluation after 13 to 15 d
In short: as §2

[13] = system: ducksalad (Heteranthera limosa); experiment: Test B flooded paddy test, ducksalad; settings: Flood, 250 g ai/ha, applied to paddy water, 2-leaf stage, visual evaluation after 13 to 15 d
In short: as §2

[14] = system: foxtail, giant (Setaria faberii); experiment: Test A postemergence, giant foxtail; settings: 0 to 100 scale
In short: as §1

[15] = system: ryegrass, Italian (Lolium multiflorum); experiment: Test A postemergence, Italian ryegrass; settings: 0 to 100 scale
In short: as §1

[16] = system: barnyardgrass (Echinochloa crus-galli); experiment: Test A preemergence, barnyardgrass; settings: 0 to 100 scale; for Barnyardgrass plant response rating: 0 is no effect, 100 is complete control
In short: as §1

[17] = system: barnyardgrass (Echinochloa crus-galli); experiment: Test B flooded paddy test, barnyardgrass; settings: Flood, 250 g ai/ha, applied to paddy water, 2-leaf stage, visual evaluation after 13 to 15 d
In short: as §2

[18] = system: ryegrass, Italian (Lolium multiflorum); experiment: Test A preemergence, Italian ryegrass; settings: 0 to 100 scale; for Ryegrass, Italian plant response rating: 0 is no effect, 100 is complete control
In short: as §1

[19] = 125 g ai/ha, 0 no effect, 100 complete control
[20] = 500 g ai/ha, 0 is no effect, 100 is complete control

C[C@@H](Nc1ncc(C(F)(F)F)c(N)n1)c1cc2ccccc2s1 [Compound 4, N2-[(1R)-1-benzo[b]thien-2-ylethyl]-5-(trifluoromethyl)-2,4-pyrimidinediamine]
Corn plant response rating (crop injury, 0 = no effect, 100 = complete kill) at 125 g/ha (corn (Zea mays); Zea mays, post-emergence, 240 h, 125 g ai/ha): 0% | Corn plant response rating (crop injury, 0 = no effect, 100 = complete kill) at 500 g/ha (corn (Zea mays); Zea mays, post-emergence, 240 h, 500 g ai/ha): 30% | pest or weed control at 125 g/ha ([1]; Ambrosia artemisiifolia, post-emergence, 240 h, 125 g ai/ha, read-out: Plant response rating, Ragweed): 80% | pest or weed control at 500 g/ha ([1]; Ambrosia artemisiifolia, post-emergence, 240 h, 500 g ai/ha, read-out: Plant response rating, Ragweed): 100% | Plant response rating, Pigweed ([2]; 125 g ai/ha): 100 | Plant response rating, Pigweed ([2]; 500 g ai/ha): 100 | Plant response rating, Ragweed ([3]; 125 g ai/ha): 100 | Plant response rating, Ragweed ([3]; 500 g ai/ha): 100 | Plant response rating, Foxtail, Giant ([4]; 125 g ai/ha): 90 | Plant response rating, Foxtail, Giant ([4]; 500 g ai/ha): 100 | plant injury at 125 g/ha ([5]; Triticum aestivum, post-emergence, 240 h, 125 g ai/ha, read-out: Plant response rating, Wheat): 0% | plant injury at 500 g/ha ([5]; Triticum aestivum, post-emergence, 240 h, 500 g ai/ha, read-out: Plant response rating, Wheat): 0% | pest or weed control at 125 g/ha ([6]; Galium, post-emergence, 240 h, 125 g ai/ha, read-out: Plant response rating, Galium): 80% | pest or weed control at 500 g/ha ([6]; Galium, post-emergence, 240 h, 500 g ai/ha, read-out: Plant response rating, Galium): 80% | pest or weed control at 125 g/ha (kochia (Kochia scoparia) [7]; Bassia scoparia, post-emergence, 240 h, 125 g ai/ha, read-out: Plant response rating, Kochia): 90% | pest or weed control at 500 g/ha (kochia (Kochia scoparia) [7]; Bassia scoparia, post-emergence, 240 h, 500 g ai/ha, read-out: Plant response rating, Kochia): 100% | Plant response rating, Kochia (kochia (Kochia scoparia) [8]; 125 g ai/ha): 100 | Plant response rating, Kochia (kochia (Kochia scoparia) [8]; 500 g ai/ha): 100 | pest or weed control at 125 g/ha ([9]; Amaranthus retroflexus, post-emergence, 240 h, 125 g ai/ha, read-out: Plant response rating, Pigweed): 100% | pest or weed control at 500 g/ha ([9]; Amaranthus retroflexus, post-emergence, 240 h, 500 g ai/ha, read-out: Plant response rating, Pigweed): 100% | plant injury at 250 g/ha (rice (Oryza sativa); Oryza sativa, 360 h, read-out: Plant response rating, Rice (0 to 100 scale, 0 is no effect, 100 is complete control)): 0% | pest or weed control at 125 g/ha ([10]; Echinochloa crus-galli, post-emergence, 240 h, 125 g ai/ha, read-out: Plant response rating, Barnyardgrass): 20% | pest or weed control at 500 g/ha ([10]; Echinochloa crus-galli, post-emergence, 240 h, 500 g ai/ha, read-out: Plant response rating, Barnyardgrass): 60% | pest or weed control at 125 g/ha ([11]; Alopecurus myosuroides, post-emergence, 240 h, 125 g ai/ha, read-out: Plant response rating, Blackgrass): 0% | pest or weed control at 500 g/ha ([11]; Alopecurus myosuroides, post-emergence, 240 h, 500 g ai/ha, read-out: Plant response rating, Blackgrass): 60% | pest or weed control at 250 g/ha ([12]; Cyperus difformis, 360 h, read-out: Plant response rating, Sedge, Umbrella (0 to 100 scale, 0 is no effect, 100 is complete control)): 100% | pest or weed control at 250 g/ha ([13]; Heteranthera limosa, 360 h, read-out: Plant response rating, Ducksalad (0 to 100 scale, 0 is no effect, 100 is complete control)): 45% | pest or weed control at 125 g/ha ([14]; Setaria faberi, post-emergence, 240 h, 125 g ai/ha, read-out: Plant response rating, Foxtail, Giant): 30% | pest or weed control at 500 g/ha ([14]; Setaria faberi, post-emergence, 240 h, 500 g ai/ha, read-out: Plant response rating, Foxtail, Giant): 70% | pest or weed control at 125 g/ha ([15]; Lolium multiflorum, post-emergence, 240 h, 125 g ai/ha, read-out: Plant response rating, Ryegrass, Italian): 0% | pest or weed control at 500 g/ha ([15]; Lolium multiflorum, post-emergence, 240 h, 500 g ai/ha, read-out: Plant response rating, Ryegrass, Italian): 20% | Plant response rating, Barnyardgrass ([16]; 125 g ai/ha): 90 | Plant response rating, Barnyardgrass ([16]; 500 g ai/ha): 100 | pest or weed control at 250 g/ha ([17]; Echinochloa crus-galli, 360 h, read-out: Plant response rating, Barnyardgrass (0 to 100 scale, 0 is no effect, 100 is complete control)): 95% | Plant response rating, Ryegrass, Italian ([18]; 125 g ai/ha): 80 | Plant response rating, Ryegrass, Italian ([18]; 500 g ai/ha): 90

C[C@H](Nc1ncc(C(F)(F)F)c(N)n1)c1csc2ccccc12 [Compound 42]
Plant response rating, Corn (corn (Zea mays); [19]): 0 | Corn plant response rating (corn (Zea mays); [20]): 0 | Plant response rating, Ragweed [1, 19]: 30 | Ragweed plant response rating [1, 20]: 0 | Pigweed plant response rating ([2]; 125 g ai/ha): 0 | Pigweed plant response rating ([2]; 500 g ai/ha): 0 | Ragweed plant response rating ([3]; 125 g ai/ha): 0 | Ragweed plant response rating ([3]; 500 g ai/ha): 0 | Foxtail, Giant plant response rating ([4]; 125 g ai/ha): 0 | Foxtail, Giant plant response rating ([4]; 500 g ai/ha): 0 | Plant response rating, Wheat [5, 19]: 0 | Wheat plant response rating [5, 20]: 0 | Plant response rating, Galium [6, 19]: 20 | Galium plant response rating [6, 20]: 20 | Plant response rating, Kochia (kochia (Kochia scoparia) [7]; [19]): 0 | Kochia plant response rating (kochia (Kochia scoparia) [7]; [20]): 0 | Kochia plant response rating (kochia (Kochia scoparia) [8]; 125 g ai/ha): 0 | Kochia plant response rating (kochia (Kochia scoparia) [8]; 500 g ai/ha): 0 | Plant response rating, Pigweed [9, 19]: 0 | Pigweed plant response rating [9, 20]: 0 | Plant response rating, Rice (0 to 100 scale, 0 is no effect, 100 is complete control) (rice (Oryza sativa)): 0 | Plant response rating, Barnyardgrass [10, 19]: 30 | Barnyardgrass plant response rating [10, 20]: 0 | Plant response rating, Blackgrass [11, 19]: 20 | Blackgrass plant response rating [11, 20]: 0 | Plant response rating, Sedge, Umbrella (0 to 100 scale, 0 is no effect, 100 is complete control) [12]: 0 | Plant response rating, Ducksalad (0 to 100 scale, 0 is no effect, 100 is complete control) [13]: 0 | Plant response rating, Foxtail, Giant [14, 19]: 0 | Foxtail, Giant plant response rating [14, 20]: 0 | Plant response rating, Ryegrass, Italian [15, 19]: 0 | Ryegrass, Italian plant response rating [15, 20]: 0 | Barnyardgrass plant response rating ([16]; 125 g ai/ha): 0 | Barnyardgrass plant response rating ([16]; 500 g ai/ha): 0 | Plant response rating, Barnyardgrass (0 to 100 scale, 0 is no effect, 100 is complete control) [17]: 0 | Ryegrass, Italian plant response rating ([18]; 125 g ai/ha): 0 | Ryegrass, Italian plant response rating ([18]; 500 g ai/ha): 0
